Measurements reported in patent publication US20100179130A1, “USE OF PIPERINE AND DERIVATIVES THEREOF FOR THE THERAPY OF NEUROLOGICAL CONDITIONS” (SYNGIS Bioscience GmbH & Co. KG, priority 2007, published 2010).

Assays:
[1] = test system: neural stem cells; assay: In vitro differentiation assay on adult neural stem cells (beta-III-tubulin promoter firefly/Renilla dual luciferase reporter); assay type: cell-based, rat; settings: for Stimulation factor for differentiation of neural stem cells / fold induction at 1 µM: 1 μM final compound concentration, in comparison to sham treatment; for differentiation of neural stem cells to neurons, dose dependence: 0.2 μM up to 25, 50 or 100 μM, compared with sham and 1 μM retinoic acid; for fold induction at 1 µM: Rattus norvegicus, Neural stem cell, read-out: Stimulation factor for differentiation of neural stem cells
Text: The neuroregenerative effect of the compounds according to the present invention can be assayed in vitro by measuring their stimulation of the differentiation of neural stem cells. Therefore, adult neural stem cells have to be isolated and subsequently cultivated in a suitable culture medium. After several passages in vitro the stem cells have to be co-transfected with a DNA construct coding for two discriminable reporter proteins one of them under the control of a constitutive promoter and the other under the control of a beta-III-tubulin promoter. The beta-III-tubulin promoter is induced during the process of neural stem cell differentiation; therefore the reporter protein under the control of this promoter serves as a marker for the stem cell differentiation in such an in vitro dual reporter assay (Schneider et al., J Clin Investigation 2005; 115:2083-2098). The person skilled in the art knows several suitable constitutive promoters such as the SV40-promoter, the TK-promoter, or the CMV-promoter. As discriminable reporter proteins for such a dual reporter assay one can use discriminable luciferases such as firefly luciferase and Renilla luciferase. The transfected cells have to be incubated with the test compound and with a positive and negative controls for normalization and background correction. As a positive control compound one can use retinoic acid (Guan et al., Cell Tissue Res. 2001; 305:171-176; Jacobs et al., Proc. Natl. Acad. Sci. USA 2006; 103:3902-3907), a suitable negative control is the sham treatment of the cells. The neroregenerative activity of the test compound is determined as the ratio of the signal of the beta-III-tubulin promoter controlled reporter versus the signal of the constitutively expressed reporter and is expressed as fold from the control. This assay is suitable to assess the neuroregenerative activity of piperine and derivatives thereof, but also can be used to screen for other potential neuroregenerative compounds. Preferably, such a screening can be used to test compounds which are already known to be suitable as a medicament in terms of its toxicology, bioavailability, solubility, stability etc.
Neural stem cells were isolated from the subventricular zone of 4 week-old male Wistar rats as described (Maurer et al, Proteome Sci. 2003; 1:4). Cells were cultivated in Neurobasal medium (Invitrogen) supplemented with B27 (Invitrogen), 2 mM L-glutamine, 100 units/ml penicillin, 100 units/ml streptomycin, 20 ng/ml […] (EGF), 20 ng/ml fibroblast growth factor-2 (FGF-2), and 2 μg/ml heparin. Once a week the neural stem cells were passaged and experiments were performed after 4 weeks in vitro. For DNA transfection, the cells were dissociated and plated on poly-L-ornithin/laminin-coated 96-well plates at a density of 50.000 cells/well. Cotransfection with the pGL3-p-βIII-tubulin vector (100 ng/well) and the pRL SV40 vector (100 ng/well) was carried out according to the FuGene6 Transfection protocol (Roche). The pRL SV40 vector (Promega) served as an internal control vector.
To amplify the class III β-tubulin gene promoter (fragment −450-+54), rat genomic DNA was used as a template for PCR (Dennis et al., Gene 2002; 294:269-277). The amplified fragment was inserted into the Mlu I/Xho I site of the pGL3-Basic firefly luciferase reporter vector (Promega) to generate the pGL3-p-βIII-tubulin experimental vector.
After overnight incubation, the plate was decanted and given in 8-fold replicates fresh medium containing piperine (Sigma) or vehicle. As a positive control for in vitro differentiation, stem cells were treated by adding 1 μM retinoic acid (Sigma) to the medium missing the mitogens.
After 48 hrs, the cells were harvested to prepare the cellular extracts for luciferase assay following the directions of the manufacturer (Promega). […]

[2] = test system: SH-SY5Y neuronal cells; assay: In vitro anti-apoptosis assay, staurosporine induced apoptosis, Caspase-Glo 3/7; assay type: cell-based, human; settings: for degree of apoptosis relative to the staurosporine control: compound 1 μM in the presence of staurosporine 0.1 μM
[3] = test system: motoneural cell line NSC-34; assay: Anti-apoptosis assay on motoneural cell line, staurosporine induced apoptosis, Caspase-Glo 3/7; assay type: cell-based; settings: for degree of apoptosis relative to the staurosporine control: compound 1 μM in the presence of staurosporine 0.1 μM
Description: Instead of the SH-SY5Y cells used in Example 3 and 4, this analysis was performed with motoneural cell line NSC-34. […] Incubation with staurosporine (SP; 0.1 μM) alone served as positive control and incubation with vehicle served as negative control. The degree of apoptosis relative to the staurosporine control is shown in FIG. 4 (vehicle (sham): 6%; staurosporine (SP): 100%; piperine plus staurosporine: 70%; derivative B plus staurosporine: 55%; derivative E plus staurosporine: 75%; derivative G plus staurosporine: 76%; derivative K plus staurosporine: 83%; derivative S plus staurosporine: 77%; derivative U plus staurosporine: 71%).

[4] = test system: SH-SY5Y neuronal cells; assay: In vitro viability assay, cells stably transfected with constitutive Renilla luciferase; settings: 1 μM, 5 h
Text: The viability assay allows for further assessment of test compounds regarding their effect on cells such as neurons. […] Subsequently, the signal generated by the reporter construct serves as a readout for the viability of the cells in the presence of the test compound. The assay enables the evaluation of potential neurotoxic effects of the test compound itself.
The effect of a compound on the viability of neuronal cells can be assayed in vitro by measuring the survival of neuronal cells transfected with a reporter construct under a constitutive promoter. SH-SY5Y neuronal cells stably transfected with a Renilla luciferase construct under the SV40 promoter were seeded in 96-well plates at a density of 2.5×10^4 cells per well. Following overnight incubation the cells were stimulated with medium containing piperine or vehicle. Staurosporine (0.1 μM) served as positive control. The Renilla luciferase activity was measured 5 h later using a luminometer (Berthold Technologies, Mithras LB 940). Piperine was tested in a range from 0.1 nM to 100 μM final concentration.

| Compound | differentiation of neural stem cells to neurons, dose dependence [1] | fold induction at 1 µM [1] | degree of apoptosis relative to the staurosporine control ([2]; SH-SY5Y) | further results |
| --- | --- | --- | --- | --- |
| 3-(Chloro-3,4-dihydro-2H-benzo[b][1,4]dioxepin-7-yl)N-cyclohexyl-acrylamide |  |  |  | Stimulation factor for differentiation of neural stem cells [1]: 1.7 x-fold |
| NC1(C(=O)/C=C/c2ccc3c(c2)OCO3)CCCCCC1 [1-(3-trans-benzo-1,3-dioxol-5-ylacryloyl)cycloheptylamine] | significantly stimulates | 4 | 49% | degree of apoptosis relative to the staurosporine control [3]: 55% |
| NC1(C(=O)/C=C/c2ccc3c(c2)OCO3)CCCC1 [1-(3-trans-benzo-1,3-dioxol-5-ylacryloyl)cyclopentylamine] | significantly stimulates | 1.4 | 77% |  |
| O=C(/C=C/c1ccc2c(c1)OCO2)N1CCCC1 [1-(3-trans-benzo-1,3-dioxol-5-ylacryloyl)pyrrolidine] | significantly stimulates | 1.3 | 72% |  |
| O=C(C=Cc1ccc2c(c1)OCCCO2)N1CCCCCC1 [1-Azepan-1-yl-3-(3,4-dihydro-2H-benzo[b][1,4]dioxepin-7-yl)-propenone] | significantly stimulates |  | 83% | Stimulation factor for differentiation of neural stem cells [1]: 6.1 x-fold; viability of neuronal cells [4]: did not show reduced viability; degree of apoptosis relative to the staurosporine control [3]: 83% |
| O=C(C=Cc1cc(Cl)c2c(c1)OCCO2)N1CCCCCC1 [1-Azepan-1-yl-3-(8-chloro-2,3-dihydro-benzol[1,4]dioxin-6-yl)-propenone] |  |  |  | Stimulation factor for differentiation of neural stem cells [1]: 1.8 x-fold |
| O=C(C=Cc1cc(Cl)c2c(c1)OCCCO2)N1CCCCCC1 [1-Azepan-1-yl-3-(9-chloro-3,4-dihydro-2H-benzo[b][1,4]dioxepin-7-yl)-propenone] |  |  |  | Stimulation factor for differentiation of neural stem cells [1]: 2.2 x-fold |
| CC1CCN(C(=O)C=Cc2ccc3c(c2)OCO3)CC1 [1-[3-(1,3-benzodioxol-5-yl)acryloyl]-4-methylpiperidine] | significantly stimulates | 1.9 |  |  |
| CCCOc1ccc(C=CC(=O)N2CCCCCC2)cc1 [1-[3-(4-propoxyphenyl)acryloyl]azepane] |  | 2.3 |  |  |
| CCCOc1ccc(C=CC(=O)N2CCCCC2)cc1 [1-[3-(4-propoxyphenyl)acryloyl]piperidine] | significantly stimulates | 4 | 81% | degree of apoptosis relative to the staurosporine control [3]: 77% |
| O=C(C=Cc1ccc2c(c1)OCO2)NCC1CCCO1 (stereo not shown) [3-(1,3-benzodioxol-5-yl)-N-(tetrahydro-2-furanylmethyl)acrylamide] |  | 1.5 |  |  |
| O=C(C=Cc1ccc2c(c1)OCO2)NC1CC2CCC1C2 (stereo not shown) [3-(1,3-benzodioxol-5-yl)-N-bicyclo[2.2.1]hept-2-ylacrylamide] |  | 1.7 |  |  |
| O=C(C=Cc1ccc2c(c1)OCO2)NC1CCCCCCC1 [3-(1,3-benzodioxol-5-yl)-N-cyclooctylacrylamide] | significantly stimulates | 5 | 77% | degree of apoptosis relative to the staurosporine control [3]: 75% |
| CCOc1ccc(C=CC(=O)NC2CCCO2)cc1 (stereo not shown) [3-(4-ethoxyphenyl)-N-(tetrahydro-2-furanyl)acrylamide] |  | 1.5 |  |  |
| O=C(C=Cc1ccc2c(c1)OCO2)NC1=NCCS1 [3-Benzol[1,3]dioxol-5-yl-N-(4,5-dihydro-thiazol-2-yl)-acrylamide] | significantly stimulates |  | 79% | Stimulation factor for differentiation of neural stem cells [1]: 4.6 x-fold; viability of neuronal cells [4]: did not show reduced viability; degree of apoptosis relative to the staurosporine control [3]: 76% |
| O=C(/C=C/c1ccc(Cl)cc1)N1CCCCC1 [(2E)-3-(4-chlorophenyl)-1-piperidylprop-2-en-1-one] | significantly stimulates |  | 60% | Stimulation factor for differentiation of neural stem cells [1]: 4.4 x-fold; viability of neuronal cells [4]: did not show reduced viability; degree of apoptosis relative to the staurosporine control [3]: 71% |
| CCCOc1ccc(C=CC(=O)NC2CCCCCC2)cc1 [N-cycloheptyl-3-(4-propoxyphenyl)acrylamide] | significantly stimulates | 1.7 |  |  |
| CCOc1ccc(C=CC(=O)NC2CCCCC2)cc1 [N-cyclohexyl-3-(4-ethoxyphenyl)acrylamide] |  | 1.7 |  |  |
| COc1ccc(C=CC(=O)NC2CCCCCCC2)cc1 [N-cyclooctyl-3-(4-methoxyphenyl)acrylamide] | significantly stimulates | 1.9 |  |  |
| CCCOc1ccc(C=CC(=O)NC2CCCC2)cc1 [N-cyclopentyl-3-(4-propoxyphenyl)acrylamide] | significantly stimulates | 1.6 |  |  |
| COc1cccc(NC(=O)/C=C/c2ccc(Cl)cc2)c1 [SB366791, reference compound] |  |  |  | inhibition of the neuroregenerative effect of piperine ([1]; SB366791 10 μM co-incubated with 10 μM piperine): did not result in any inhibition; inhibition of the neuroprotective effect of piperine ([2]; SB366791 10 nM to 100 nM with piperine 10 μM and staurosporine 0.1 μM): did not result in any inhibition |
| COc1cc(CNC(=O)CCCC/C=C/C(C)C)ccc1O [capsaicin, reference compound] |  |  |  | stimulating effect on the differentiation of neural stem cells ([1]; 0.1 nM to 100 μM final concentration): no stimulating effect; anti-apoptotic effect compared to piperine (10 μM) ([2]; capsaicin 10 μM with staurosporine 0.1 μM): only a marginal anti-apoptotic effect |
| CN[C@@H]1C[C@H]2O[C@@](C)([C@@H]1OC)n1c3ccccc3c3c4c(c5c6ccccc6n2c5c31)C(=O)NC4 [staurosporine, reference compound] |  |  |  | degree of apoptosis relative to the staurosporine control (staurosporine alone) ([2]; staurosporine 0.1 μM alone, positive control, SH-SY5Y): 100%; degree of apoptosis relative to the staurosporine control (staurosporine alone) ([3]; staurosporine 0.1 μM alone, positive control): 100% |
